Measurements published in patent US4440764A, “Water soluble esters of steroid-oxazole and pharmaceutical compositions containing them” (Gruppo Lepetit S.p.A., priority 1980, dated 1984).

Experiments:
Assay type in all cases: in vivo
[1] = test system: carrageenin-induced oedema; test: carrageenin-induced oedema test in rats (i.v.)
Nystatin-induced oedema = Nystatin-induced oedema test (i.v.); details: antiinflammatory equivalent doses, at the 48th, 72nd, and 96th hours, vs prednisolone hemisuccinate and hydrocortisone hemisuccinate
anaphylactic shock = test: protection against anaphylactic shock in mice; details: Mus musculus, ip
From the text: (§1) In the protection against anaphylactic shock and endotoxin shock in mice, the following results have been obtained: […]

endotoxin shock = test: protection against endotoxin shock in mice; details: Mus musculus, sc
From the text: as §1

[2] = test system: hepatic neoglycogenetic activity; test: hepatic neoglycogenetic activity in adrenalectomized rats
[3] = test system: equilibrium sodium-potassium; test: mineralocorticoid effects in the adrenalectomized rats; details: at doses which provide the same pharmacological effect, vs prednisolone or hydrocortisone hemisuccinate
[4] = relative to hydrocortisone hemisuccinate
[5] = relative to prednisolone hemisuccinate

| Compound | times more active than hydrocortisone hemisuccinate [1, 4] [times] | times more active than prednisolone hemisuccinate [1, 5] [times] | duration of antiphlogistic activity versus reference compounds (Nystatin-induced oedema) | ED50 (anaphylactic shock) [mg/kg] | ED50 (endotoxin shock) [mg/kg] | hepatic neoglycogenetic activity, times more potent than hydrocortisone hemisuccinate [2, 4] [times] | hepatic neoglycogenetic activity, times more potent than prednisolone hemisuccinate [2, 5] | mineralocorticoid effects (effect on equilibrium sodium-potassium) [3] |
| --- | --- | --- | --- | --- | --- | --- | --- | --- |
| CC1=NC2(C(=O)COC(=O)CCC(=O)O)C(CC3C4CCC5=CC(=O)C=CC5(C)C4C(O)CC32C)O1 (stereo not drawn) [Deflazacort hemisuccinate, 11β,21-dihydroxy-2'-methyl-5'H-pregna-1,4-dieno[17,16-d]oxazole-3,20-dione-21-hemisuccinate] | 142 | 15 | longer lasting antiphlogistic activity than the reference compounds | 22 | 31 | ~40 | about 5 times | affects the equilibrium sodium-potassium much less than prednisolone or hydrocortisone hemisuccinate |
| CC12CCC(=O)C=C1CCC1C2C(O)CC2(C)C1CCC2(O)C(=O)COC(=O)CCC(=O)O (stereo not drawn) [Hydrocortisone hemisuccinate, hydrocortisone hemisuccinate] |  |  |  | 143 | 180 |  |  |  |
| C[C@]12C=CC(=O)C=C1CC[C@@H]1[C@@H]2[C@@H](O)C[C@@]2(C)[C@H]1CC[C@]2(O)C(=O)COC(=O)CCC(=O)O [Prednisolone hemisuccinate, prednisolone hemisuccinate] |  |  |  | 35.5 | 50.5 |  |  |  |
